Experimental data reported in paper PMC3532720, “A Sugar Gustatory Receptor Identified from the Foregut of Cotton Bollworm Helicoverpa armigera” (Journal of Chemical Ecology, 2012).

These molecules were tested against T1, HaGR9 (Helicoverpa armigera, UniProt L0C9V2) (assay: calcium imaging, transfected Sf9 cells). Conditions: agonist; dose range 5 to 50 mM; HBSS buffer; control-cell response subtracted; Sf9 cells have endogenous sugar responses.
T1 construct: gene GR9; native full-length receptor, 465 residues, untagged, cDNA from larval foregut, transiently expressed in Spodoptera frugiperda Sf9 cells, no co-receptor co-transfected
T1 sequence (L0C9V2 1-465): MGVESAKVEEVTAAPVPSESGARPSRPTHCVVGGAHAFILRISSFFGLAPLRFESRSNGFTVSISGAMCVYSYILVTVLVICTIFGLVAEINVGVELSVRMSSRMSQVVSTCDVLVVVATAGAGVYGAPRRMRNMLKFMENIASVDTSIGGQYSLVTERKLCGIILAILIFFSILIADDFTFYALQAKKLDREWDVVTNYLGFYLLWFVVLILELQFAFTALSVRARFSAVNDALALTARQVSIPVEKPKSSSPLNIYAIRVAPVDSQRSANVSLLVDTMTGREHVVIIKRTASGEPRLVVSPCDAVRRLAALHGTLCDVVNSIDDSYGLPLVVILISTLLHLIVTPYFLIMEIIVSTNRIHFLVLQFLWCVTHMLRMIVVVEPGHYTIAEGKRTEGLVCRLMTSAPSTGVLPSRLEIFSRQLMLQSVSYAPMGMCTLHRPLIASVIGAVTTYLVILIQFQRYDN
Format: cell-based

| EC50 | SMILES |
| --- | --- |
| 16.5 ± 1.3 mM | OC[C@H]1O[C@H](O[C@H]2[C@H](O)[C@@H](O)C(O)O[C@@H]2CO)[C@H](O)[C@@H](O)[C@@H]1O (stereo partly drawn) [D-maltose] |
| 21.3 ± 1.1 mM | OC[C@H]1OC(O)[C@H](O)[C@@H](O)[C@H]1O (stereo partly drawn) [D-galactose] |
| 21.5 ± 1.1 mM | OCC1(O)OC[C@@H](O)[C@@H](O)[C@@H]1O (stereo partly drawn) [D-fructose] |
